Test results published in ChEMBL document CHEMBL1201862, “PubChem BioAssay data set” (2004).
Active and inactive are the calls of the source.

Tests used:
Mu-type opioid receptor = Mu-type opioid receptor (Homo sapiens, UniProt P35372); format: functional, cell-based;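 also: U2OS cells with beta-arrestin recruitment to OPRM1 by beta-gal complementation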
[1] = microbe, parasite or virus in culture; format: functional; settings: Mycobacterium tuberculosis
[2] = ZM109 Env clade C HIV-1 fusion inhibitors, dose response, HeLa effector, CEM target cells, luciferase, cherry-pick (AID 652058); format: functional, cell-based
[3] = inhibitors of clade B AD8 Env fusion, dose response, cell-based, cherry-pick (AID 652062); format: functional;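 also: luciferase signal from cell-cell fusion driven by HIV-1 clade B AD8 Env; potency is for inhibitors of fusion seen as a drop in luminescence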
[4] = off-target signal loss in HeLa-CEM21 co-culture – HeLa F-luc CTL cells, cherry-picked, counter-screen for HIV-1 Env fusion inhibitor project, dose response (AID 652040); format: functional, cell-based;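 also: potency for signal decrease marking cytotoxic or nonspecific inhibition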
[5] = inhibitors of HIV Env-driven cell fusion, dose response, cherry-pick (AID 652057); format: functional, cell-based
Escherichia coli [6] = test: microbe, parasite or virus in culture
[7] = CEM21 lymphoblast cell cytotoxicity, dose response, cytotoxicity control for viral fusion inhibitor project, CellTiter-Glo luminescence, cherry-picked (AID 652042); format: functional, cell-based;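 also: potency for signal decrease meaning cytotoxicity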
Escherichia coli [8] = test: microbe, parasite or virus in culture; remark: listed apart in the source
[9] = target: 5-hydroxytryptamine receptor 2A (Mus musculus, UniProt P35363); format: functional, cell-based;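 also: CHO-K1 cells with tagged receptor and beta-arrestin; agonist potency measured as compound-induced activation of the receptor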
[10] = Luminescence Cell-Based Dose Retest to Confirm Inhibitors of Cancer Stem Cells. [Related pubchem assays (depositor defined):AID2717, AID2721]; format: functional; settings: Homo sapiens
[11] = non-specific cell cytotoxicity, dose response, cytotoxicity control for PAX8 inhibitor project, plate reader, dry powder samples (AID 743021); format: functional, cell-based
[12] = Counterscreen for antagonists of the human trace amine associated receptor 1 (hTAAR1): Fluorescence-based cell-based high throughput dose response assay to identify nonselective Ga16 antagonists.; format: functional
Paired box protein Pax-8 = Paired box protein Pax-8 (Homo sapiens, UniProt Q06710); test: inhibitors of PAX8-driven TPO luciferase reporter, dose response, RMG-I cells, cherry-pick (AID 687027); format: functional, cell-based;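 also: luciferase reporter driven by Pax8 target thyroperoxidase promoter measured by SteadyGlo luminescence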
[13] = Counterscreen for […] of the human trace amine associated receptor 1 (TAAR1): Fluorescence-based cell-based high throughput dose response assay to identify nonselective Ga16 agonists.; format: functional
Beta-lactamase [14] = target: T1, Beta-lactamase (Pseudomonas aeruginosa, UniProt Q79MP6); test: IMP-1 metallo-beta-lactamase inhibitors, dose response, selectivity assay for VIM-2 inhibitor project, biochemical, epi-absorbance (AID 1920)
Beta-lactamase [15] = target: Beta-lactamase (Salmonella choleraesuis (strain SC-B67), UniProt Q5J463); test: Epi-absorbance-based counterscreen for selective VIM-2 inhibitors: dose response biochemical high throughput screening assay to identify inhibitors of TEM-1 serine-beta-lactamase.
Beta-lactamase [16] = target: T1, Beta-lactamase; test: […] counterscreen for selective VIM-2 inhibitors: dose response biochemical high throughput screening assay to identify inhibitors of IMP-1 metallo-beta-lactamase.
[17] = target: T2, Apoptotic protease-activating factor 1 (Homo sapiens, UniProt O14727); format: functional
T2 sequence (O14727 whole entry): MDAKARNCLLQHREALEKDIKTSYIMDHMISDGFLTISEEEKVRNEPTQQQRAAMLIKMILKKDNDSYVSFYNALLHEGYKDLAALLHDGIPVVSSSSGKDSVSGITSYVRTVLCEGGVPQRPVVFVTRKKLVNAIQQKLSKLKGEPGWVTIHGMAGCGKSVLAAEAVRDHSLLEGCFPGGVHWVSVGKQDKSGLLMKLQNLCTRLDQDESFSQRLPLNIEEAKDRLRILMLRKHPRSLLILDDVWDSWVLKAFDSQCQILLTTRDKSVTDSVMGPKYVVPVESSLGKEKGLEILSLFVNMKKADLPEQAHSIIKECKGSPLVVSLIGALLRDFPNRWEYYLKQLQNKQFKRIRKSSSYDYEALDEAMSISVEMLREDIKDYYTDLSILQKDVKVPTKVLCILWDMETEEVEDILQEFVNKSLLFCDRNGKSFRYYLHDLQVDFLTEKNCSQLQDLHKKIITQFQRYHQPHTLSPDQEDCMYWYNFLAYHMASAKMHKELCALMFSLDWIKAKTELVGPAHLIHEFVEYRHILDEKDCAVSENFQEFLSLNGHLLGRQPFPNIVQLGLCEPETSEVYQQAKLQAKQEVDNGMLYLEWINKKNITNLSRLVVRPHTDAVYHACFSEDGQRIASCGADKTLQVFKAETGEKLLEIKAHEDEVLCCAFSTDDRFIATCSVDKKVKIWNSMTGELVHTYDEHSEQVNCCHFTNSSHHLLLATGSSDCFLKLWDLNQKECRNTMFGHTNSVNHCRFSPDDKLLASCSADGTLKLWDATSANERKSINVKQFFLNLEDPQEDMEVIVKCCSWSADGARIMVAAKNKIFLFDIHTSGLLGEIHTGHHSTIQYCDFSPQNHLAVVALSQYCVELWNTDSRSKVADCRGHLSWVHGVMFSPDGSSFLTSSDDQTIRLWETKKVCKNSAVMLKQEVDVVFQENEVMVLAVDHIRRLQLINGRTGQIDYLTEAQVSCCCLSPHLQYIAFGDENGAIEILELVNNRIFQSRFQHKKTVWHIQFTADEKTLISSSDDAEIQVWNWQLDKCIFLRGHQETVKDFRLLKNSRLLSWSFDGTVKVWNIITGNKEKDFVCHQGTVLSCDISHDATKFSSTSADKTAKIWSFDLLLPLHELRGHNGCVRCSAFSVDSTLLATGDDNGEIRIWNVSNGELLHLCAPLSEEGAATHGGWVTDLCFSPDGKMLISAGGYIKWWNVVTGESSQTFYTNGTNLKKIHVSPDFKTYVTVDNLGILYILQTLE

[18] = target: T3, Tyrosyl-DNA phosphodiesterase 2 (Homo sapiens, UniProt O95551); test: human TDP2 enzyme inhibitors, dose response, biochemical, epi absorbance, IC50 (AID 743297)
T3 sequence (O95551 whole entry): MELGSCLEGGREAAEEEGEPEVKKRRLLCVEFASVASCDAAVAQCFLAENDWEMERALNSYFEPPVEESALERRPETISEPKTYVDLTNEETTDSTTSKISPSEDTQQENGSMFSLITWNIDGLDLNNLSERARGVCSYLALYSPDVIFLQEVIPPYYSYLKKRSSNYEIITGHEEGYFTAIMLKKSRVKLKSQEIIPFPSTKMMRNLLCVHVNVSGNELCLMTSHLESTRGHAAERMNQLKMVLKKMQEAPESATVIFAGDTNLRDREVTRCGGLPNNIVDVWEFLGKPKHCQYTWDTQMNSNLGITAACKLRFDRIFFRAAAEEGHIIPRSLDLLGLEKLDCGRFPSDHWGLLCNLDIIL

Protein RecA = target: T4, Protein RecA (Mycobacterium tuberculosis, UniProt P9WHJ3); test: Fluorescence Cell-Free Homogeneous Dose Retest to Identify Inhibitors of RecA-Intein Splicing Activity. [Related pubchem assays (depositor defined):AID2097, AID2223, AID489010, AID492950]; format: functional
T4 sequence (P9WHJ3 whole entry): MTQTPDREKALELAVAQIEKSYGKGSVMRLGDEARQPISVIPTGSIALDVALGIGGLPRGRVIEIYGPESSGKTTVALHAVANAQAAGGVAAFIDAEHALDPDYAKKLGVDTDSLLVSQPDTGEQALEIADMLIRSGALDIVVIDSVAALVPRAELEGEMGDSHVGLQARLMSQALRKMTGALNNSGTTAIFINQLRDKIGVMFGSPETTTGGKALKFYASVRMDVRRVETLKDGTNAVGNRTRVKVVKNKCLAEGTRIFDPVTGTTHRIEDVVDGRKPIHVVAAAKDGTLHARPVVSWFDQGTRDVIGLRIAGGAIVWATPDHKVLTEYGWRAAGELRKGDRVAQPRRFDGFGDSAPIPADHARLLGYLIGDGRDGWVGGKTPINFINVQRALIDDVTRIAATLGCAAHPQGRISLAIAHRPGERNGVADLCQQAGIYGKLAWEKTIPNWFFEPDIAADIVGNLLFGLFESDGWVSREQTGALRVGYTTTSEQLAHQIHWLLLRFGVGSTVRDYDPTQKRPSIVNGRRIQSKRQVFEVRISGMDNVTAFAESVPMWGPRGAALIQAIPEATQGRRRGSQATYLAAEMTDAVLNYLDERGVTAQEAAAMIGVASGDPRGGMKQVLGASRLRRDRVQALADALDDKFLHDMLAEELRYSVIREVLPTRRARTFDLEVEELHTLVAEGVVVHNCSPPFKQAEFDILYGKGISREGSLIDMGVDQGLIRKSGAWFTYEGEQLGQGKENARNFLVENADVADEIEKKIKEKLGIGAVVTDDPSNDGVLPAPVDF

[19] = target: Arf-GAP with SH3 domain, ANK repeat and PH domain-containing protein 1 (Homo sapiens, UniProt Q9ULH1); format: functional;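 also: biochemical fluorescence polarization dose–response screen measuring inhibition of ASAP1; ASAP1 GAP domain stimulating GTP hydrolysis by truncated human ARF1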
[20] = target: T5, Replicative DNA helicase DnaB (Mycobacterium tuberculosis, UniProt P9WMR3); test: DnaB intein splicing inhibitors, dose response, biochemical, cell-free fluorescence (AID 449749); format: functional
T5 sequence (P9WMR3 whole entry): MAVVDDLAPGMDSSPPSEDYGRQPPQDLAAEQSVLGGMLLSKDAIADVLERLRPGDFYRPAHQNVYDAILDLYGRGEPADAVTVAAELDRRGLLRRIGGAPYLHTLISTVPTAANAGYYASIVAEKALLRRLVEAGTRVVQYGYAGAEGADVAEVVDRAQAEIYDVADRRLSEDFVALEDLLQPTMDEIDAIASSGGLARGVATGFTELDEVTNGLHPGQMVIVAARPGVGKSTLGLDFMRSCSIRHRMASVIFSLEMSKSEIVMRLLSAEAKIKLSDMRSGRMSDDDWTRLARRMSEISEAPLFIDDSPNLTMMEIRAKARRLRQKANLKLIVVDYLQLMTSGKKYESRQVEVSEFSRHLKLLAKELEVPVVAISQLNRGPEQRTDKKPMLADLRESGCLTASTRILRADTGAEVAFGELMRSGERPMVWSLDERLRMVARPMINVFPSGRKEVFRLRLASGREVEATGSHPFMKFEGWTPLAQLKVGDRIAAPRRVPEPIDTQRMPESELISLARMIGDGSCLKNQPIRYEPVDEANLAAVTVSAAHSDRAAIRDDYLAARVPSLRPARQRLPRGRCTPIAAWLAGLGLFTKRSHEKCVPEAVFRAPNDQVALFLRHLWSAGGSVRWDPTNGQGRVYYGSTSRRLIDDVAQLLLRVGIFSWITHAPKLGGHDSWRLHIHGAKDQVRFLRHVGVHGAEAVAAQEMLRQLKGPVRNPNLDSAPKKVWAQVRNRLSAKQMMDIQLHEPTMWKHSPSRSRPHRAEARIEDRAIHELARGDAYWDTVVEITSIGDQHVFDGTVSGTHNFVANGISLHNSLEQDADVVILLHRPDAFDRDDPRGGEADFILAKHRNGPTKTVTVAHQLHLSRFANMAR

[21] = A cytotoxicity screen of small molecule inhibitors of the PhoP region in Salmonella typhi identified in the primary screen. [Related pubchem assays: 1850, 1864, 1985 ]; format: functional
Vero = test: Vero cell toxicity, dose response, cytotoxicity control, plate reader, cherry-pick samples (AID 687020); format: functional, cell-based; settings: Chlorocebus sabaeus
[22] = target: T6, Sentrin-specific protease 8 (Homo sapiens, UniProt Q96LD8); format: functional
T6 sequence (Q96LD8 whole entry): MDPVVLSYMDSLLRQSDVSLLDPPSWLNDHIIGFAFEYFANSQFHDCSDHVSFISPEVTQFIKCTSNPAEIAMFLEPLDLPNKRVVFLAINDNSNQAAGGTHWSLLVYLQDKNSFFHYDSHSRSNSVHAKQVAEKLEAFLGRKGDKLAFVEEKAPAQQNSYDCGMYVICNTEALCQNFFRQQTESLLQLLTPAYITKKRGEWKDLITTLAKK

[23] = target: T6, Sentrin-specific protease 8; format: functional; remark: listed apart in the source
Caspase-3 = target: T7, Caspase-3 (Homo sapiens, UniProt P42574); test: Dose-response confirmation of uHTS inhibitor hits of Sentrin-Specific Protease 8 in a Caspase-3 Fluorescence assay.; format: functional
T7 sequence (P42574 whole entry): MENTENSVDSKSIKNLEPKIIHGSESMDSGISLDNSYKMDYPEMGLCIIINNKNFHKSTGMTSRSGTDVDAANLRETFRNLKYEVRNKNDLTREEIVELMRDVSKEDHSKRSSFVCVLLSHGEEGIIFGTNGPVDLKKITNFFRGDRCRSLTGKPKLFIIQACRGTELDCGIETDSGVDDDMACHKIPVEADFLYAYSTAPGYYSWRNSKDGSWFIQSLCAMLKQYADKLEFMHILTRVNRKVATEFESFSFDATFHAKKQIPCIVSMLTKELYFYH

T1 sequence (Q79MP6 whole entry): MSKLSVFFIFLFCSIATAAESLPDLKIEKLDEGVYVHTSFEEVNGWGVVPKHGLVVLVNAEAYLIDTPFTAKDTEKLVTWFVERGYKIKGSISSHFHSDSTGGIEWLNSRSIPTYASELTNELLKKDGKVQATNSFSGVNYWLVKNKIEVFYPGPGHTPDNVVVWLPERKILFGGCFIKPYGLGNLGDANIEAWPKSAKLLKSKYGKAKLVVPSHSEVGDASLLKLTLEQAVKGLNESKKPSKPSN
Chain of Beta-lactamase (Salmonella choleraesuis (strain SC-B67), UniProt Q5J463) (Q5J463 whole entry): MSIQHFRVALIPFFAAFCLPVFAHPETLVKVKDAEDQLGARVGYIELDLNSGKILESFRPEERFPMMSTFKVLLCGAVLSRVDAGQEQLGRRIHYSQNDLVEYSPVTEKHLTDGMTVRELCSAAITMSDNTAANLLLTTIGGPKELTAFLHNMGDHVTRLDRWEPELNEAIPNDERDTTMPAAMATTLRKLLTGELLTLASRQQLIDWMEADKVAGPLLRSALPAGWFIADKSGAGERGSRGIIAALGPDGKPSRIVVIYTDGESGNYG
Chain of Mu-type opioid receptor (P35372 whole entry): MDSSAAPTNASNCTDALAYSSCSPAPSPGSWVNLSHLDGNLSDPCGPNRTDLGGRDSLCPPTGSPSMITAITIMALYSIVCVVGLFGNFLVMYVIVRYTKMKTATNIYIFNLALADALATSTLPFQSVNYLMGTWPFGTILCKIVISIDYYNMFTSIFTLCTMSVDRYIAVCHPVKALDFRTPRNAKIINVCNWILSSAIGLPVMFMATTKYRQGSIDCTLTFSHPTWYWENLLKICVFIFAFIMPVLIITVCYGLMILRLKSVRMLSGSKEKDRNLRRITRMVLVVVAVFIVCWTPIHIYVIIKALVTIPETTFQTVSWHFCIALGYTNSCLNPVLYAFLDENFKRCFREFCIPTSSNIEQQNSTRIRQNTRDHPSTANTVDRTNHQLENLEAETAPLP
Chain of Arf-GAP with SH3 domain, ANK repeat and PH domain-containing protein 1 (Q9ULH1 whole entry, the tested form may be a part): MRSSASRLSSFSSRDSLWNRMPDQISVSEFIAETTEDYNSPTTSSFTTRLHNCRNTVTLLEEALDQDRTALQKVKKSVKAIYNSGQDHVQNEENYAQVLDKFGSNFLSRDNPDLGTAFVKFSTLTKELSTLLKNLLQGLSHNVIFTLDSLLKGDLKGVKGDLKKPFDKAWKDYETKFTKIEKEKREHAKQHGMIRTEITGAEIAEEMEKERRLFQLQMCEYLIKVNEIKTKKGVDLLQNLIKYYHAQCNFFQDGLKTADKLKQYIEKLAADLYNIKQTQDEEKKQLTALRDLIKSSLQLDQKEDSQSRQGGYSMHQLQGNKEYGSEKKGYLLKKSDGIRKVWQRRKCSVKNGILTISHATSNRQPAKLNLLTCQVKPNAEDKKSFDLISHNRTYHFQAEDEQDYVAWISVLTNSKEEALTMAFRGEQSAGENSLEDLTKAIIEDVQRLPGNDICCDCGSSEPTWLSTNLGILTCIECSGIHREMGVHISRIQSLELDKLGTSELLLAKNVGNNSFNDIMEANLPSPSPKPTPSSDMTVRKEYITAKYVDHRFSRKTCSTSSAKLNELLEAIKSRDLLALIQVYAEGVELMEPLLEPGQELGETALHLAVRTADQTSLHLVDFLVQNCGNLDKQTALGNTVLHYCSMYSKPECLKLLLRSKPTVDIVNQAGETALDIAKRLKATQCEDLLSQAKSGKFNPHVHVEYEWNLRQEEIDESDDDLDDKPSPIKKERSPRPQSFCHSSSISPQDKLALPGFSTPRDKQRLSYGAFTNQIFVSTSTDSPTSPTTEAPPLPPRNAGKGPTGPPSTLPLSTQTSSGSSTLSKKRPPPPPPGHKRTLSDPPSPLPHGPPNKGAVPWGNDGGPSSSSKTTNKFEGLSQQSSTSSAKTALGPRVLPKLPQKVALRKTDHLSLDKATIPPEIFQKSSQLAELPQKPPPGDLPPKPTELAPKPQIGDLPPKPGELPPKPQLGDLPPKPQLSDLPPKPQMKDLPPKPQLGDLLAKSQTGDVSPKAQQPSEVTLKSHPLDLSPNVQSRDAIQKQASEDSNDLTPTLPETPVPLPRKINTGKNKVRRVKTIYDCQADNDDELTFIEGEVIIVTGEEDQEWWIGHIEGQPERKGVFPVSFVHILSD
Chain of Paired box protein Pax-8 (Q06710 whole entry): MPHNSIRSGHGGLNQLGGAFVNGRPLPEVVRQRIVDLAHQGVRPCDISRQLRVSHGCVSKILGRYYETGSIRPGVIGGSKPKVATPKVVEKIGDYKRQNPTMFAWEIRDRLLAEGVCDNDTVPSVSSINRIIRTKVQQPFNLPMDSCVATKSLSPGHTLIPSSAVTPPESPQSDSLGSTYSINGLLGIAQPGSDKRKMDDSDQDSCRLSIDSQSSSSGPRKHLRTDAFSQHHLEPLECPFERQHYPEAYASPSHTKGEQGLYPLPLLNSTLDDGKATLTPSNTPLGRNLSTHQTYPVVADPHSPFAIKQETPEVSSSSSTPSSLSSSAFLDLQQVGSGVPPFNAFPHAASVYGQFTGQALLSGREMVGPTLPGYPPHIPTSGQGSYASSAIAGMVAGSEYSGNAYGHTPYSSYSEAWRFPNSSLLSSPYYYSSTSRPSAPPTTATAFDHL
Chain of 5-hydroxytryptamine receptor 2A (P35363 whole entry): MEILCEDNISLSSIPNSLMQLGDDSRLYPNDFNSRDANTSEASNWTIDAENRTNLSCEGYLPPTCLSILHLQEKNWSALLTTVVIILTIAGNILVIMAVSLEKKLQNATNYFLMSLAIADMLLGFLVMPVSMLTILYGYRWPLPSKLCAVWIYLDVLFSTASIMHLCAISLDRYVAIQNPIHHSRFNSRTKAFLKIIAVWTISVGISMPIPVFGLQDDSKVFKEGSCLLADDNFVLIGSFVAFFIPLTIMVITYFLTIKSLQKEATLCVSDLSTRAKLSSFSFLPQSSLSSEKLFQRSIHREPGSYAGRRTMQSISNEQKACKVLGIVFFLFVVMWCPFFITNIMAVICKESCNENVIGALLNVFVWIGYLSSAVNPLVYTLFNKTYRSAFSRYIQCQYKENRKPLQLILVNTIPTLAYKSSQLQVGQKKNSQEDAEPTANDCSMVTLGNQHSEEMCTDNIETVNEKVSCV

CN(C)c1ccc(O)c2c1CC1CC3[C@@H](N(C)C)C(=O)C(C(N)=O)C(=O)[C@]3(O)C(=O)C1C2=O (stereo partly drawn)
EC50 (Mu-type opioid receptor): 92.5 µM (inactive) | CC50 [1]: 29 µM (active) | AC50 [2]: < 260 nM (active) | AC50 [3]: < 260 nM (active) | AC50 [4]: < 260 nM (active) | AC50 [5]: < 260 nM (active) | AC50 (Escherichia coli [6]): 1.35 µM (active) | AC50 [7]: 61.2 µM (active) | AC50 (Escherichia coli [8]): 11.8 µM (active) | EC50 [9]: 659 nM (active)

Cc1cc(Br)c(OCc2ccc(C(=O)N/N=C/c3ccc[nH]3)cc2)c(Br)c1
AC50 [10]: 228 nM (active) | AC50 [11]: 59.4 µM (active) | IC50 [12]: > 29.9 µM (inactive) | AC50 (Paired box protein Pax-8): 693 nM (active) | EC50 [13]: > 29.9 µM (inactive)

Cc1c(C)c2c(OCC(=O)N[C@@H](C)C(=O)O)cc3c(c2oc1=O)CCC(C)(C)O3
IC50 (Beta-lactamase [14]): > 59.6 µM (inactive) | IC50 (Beta-lactamase [15]): > 59.6 µM (inactive) | IC50 (Beta-lactamase [16]): > 59.6 µM (inactive)

CC(=O)c1cccc(-c2ccc3c(=O)[nH]c(Nc4ccccc4)cc3c2)c1
IC50 [17]: 3.02 µM (active) | IC50 [18]: 25.9 µM (inactive) | EC50 (Protein RecA): 2.14 µM (active) | IC50 [19]: 165 µM (inactive) | AC50 [20]: > 380 µM (inactive)

O=C(Nc1ccc(Cc2ccncc2)cc1)c1cccs1
EC50 [21]: > 50 µM (active) | AC50 (Vero): 26.3 µM (active)

Cc1ccc(S(=O)(=O)N2CCOCC2)cc1C(=O)OCC(=O)N1CCc2ccccc2C1
IC50 [22]: 24.4 µM (active) | IC50 [23]: 62.2 µM (inactive) | IC50 (Caspase-3): 92.7 µM (inactive)
